From publication PMC3983056 (PLoS Pathogens, 2014)
Where “and” joins values, the source holds several entries; their conditions need not be identical. Identical values can stand only once. Like-named read-outs stand apart in the source and are kept apart here.

Legend:
[1] = tested on: latent HIV in resting CD4 T cells from HIV-infected patients on suppressive cART; type: cell-based; conditions: for HIV RNA avg: 40 nM RMD, one value per donor; for HIV RNA [copies/mil cells] avg: Figure 5
Method: To examine the kinetics of HIV induction, we analyzed cell-associated viral RNA levels at 6, 12, 24, and 48 hours after treatment initiation.
Lysates were filtered through a Qiashredder (Qiagen).

[2] = tested on: memory CD4 cells from HIV-infected patients; experiment: Viability of primary memory CD4 cells (Cell TiterGlo, 6 days); type: cell-based, human; conditions: memory CD4 cells, tested RMD concentrations (5 and 20 nM, 4 hours), day 6
Method: Cell viability was determined using a Cell TiterGlo reagent 6 days after the initiation of treatment and is expressed as a percentage of cell viability relative to control vehicle-treated memory CD4 cells from the same donors. The data represent mean +/− S.D. from three independent donors. (TIF) Click here for additional data file.

[3] = tested on: HIV gag-pol RNA from resting CD4 T cells of a cART-suppressed patient; experiment: Single-genome sequencing of HIV RNA in culture supernatants; type: cell-based; conditions: 2.5 nM RMD, continuous, day 7
Text: In parallel, we assessed the sequence diversity of HIV proviruses integrated in genomic DNA of resting CD4 T cells from the same culture.
Figure 8 Phylogenetic analysis of HIV sequences expressed ex vivo following the latency reversal. […] Single-genome sequencing was used to analyze patient HIV proviral DNA and plasma RNA at the initiation of treatment (day 0), together with the ex vivo induced HIV RNA in cell culture supernatants at the end of treatment (day 7). […] Identified HIV DNA and RNA sequences were aligned and the phylogenetic tree was constructed using Clustal W and MEAG5.
Single-genome sequencing of a portion of HIV-1 gag-pro-pol amplified from cell culture supernatants or cellular DNA extracts was performed as previously described [34]–[36]. Sequences were aligned using ClustalW and neighbor-joining phylogenetic analysis was performed using MEGA5. Trees were rooted on the subtype B consensus sequence (www.hiv.lanl.gov).

[4] = Cell culture medium protein binding by equilibrium dialysis, HPLC/mass spectrometry; type: in vitro ADME
[5] = tested on: latently infected primary CD4 T cells; experiment: Compound-associated cytotoxicity in latently infected cells (Cell Titer Glo); type: cell-based, human; conditions: continuous 48 hours, 50% cell viability reduction, three donors, mean ± SD
Method: (§1) Total peripheral blood mononuclear cells (PBMCs) were obtained from healthy HIV-negative donors by leukapheresis (AllCells, Inc, Emeryville, CA). Naive CD4+ T cells were purified by negative selection using EasySep magnetic beads (StemCells, Inc, Vancouver, Canada) and cultured in RPMI with 10% fetal bovine serum (FBS), penicillin/streptomycin, 1% nonessential amino acids (Life Technologies, Carlsbad, CA), 1% sodium pyruvate (Life Technologies) and 495 nM beta-mercaptoethanol (Sigma Aldrich, St. Louis, MO) in a 37°C, 5% CO2 incubator. Purified naive CD4+ T cells were activated by incubation with anti-CD3/CD28 magnetic Dynabeads (1 bead: 2 cells ratio, Life Technologies), 1 µg/ml anti-IL-4 (R&D Systems, Minneapolis, MN), 2 µg/ml anti-IL-12p70 antibodies (R&D Systems), and 10 ng/ml TGF-β (R&D Systems) for 3 days, [59]. Following the removal of anti-CD3/CD28 beads and antibodies, cells were maintained in 30 U/ml IL-2 (Life Technologies) for 2 days. Cells were then infected with NL4.3-Luc in the presence of 50 µg/ml DEAE for 3 hours. Cells were maintained in the continued presence of 30 U/ml IL-2 throughout the infection and subsequent rest period with culture medium with fresh IL-2 replaced every 2–3 days. Seven days post-infection, 20 µl of latently infected cells were dispensed into 384 well plates using a MicroFlo dispenser (Biotek Insturments, VT) at 10,000 cells/well containing 100 nl of compound solutions delivered by the Echo acoustic-based liquid dispenser (Labcyte, Sunnyvale, CA). After a 48-hour incubation, 16 µl/well BriteGlo (Promega, Madison, WI) was added and luminescence measured using the Envision plate reader (Perkin Elmer, Waltham, MA). Compound-associated cytotoxicity was determined in latently infected cells in parallel with the virus activation assay. Cells were incubated with compounds for 48 hours at 37°C, and cell viability was determined using Cell Titer Glo reagent (Promega).

[6] = as above; type: cell-based, human; conditions: human, latently infected (NL4.3-Luc) primary CD4+ T cells, continuous 48 hours, 50% cell viability reduction, three donors, mean ± SD
Method: as §1

[7] = tested on: total class I and II HDAC enzyme activity in resting CD4 T cells; conditions: pulse RMD 4 hours, VOR 24 hours, PNB 24 hours, 6 to 48 hours
Method: Resting CD4 T cells obtained from HIV-infected patients on suppressive cART were incubated with serial dilutions of HDACi in 96-well plates at 10,000 cells/well for indicated time and then lysed by repeated freezing and thawing. Total cellular HDAC activity was measured using the HDAC-Glo I/II assay kit (Promega) according to the manufacturer's protocol.

[8] = tested on: latent HIV in memory CD4 T cells from HIV-infected patients on suppressive cART; conditions: for HIV RNA avg: 6 days, one value per donor; for extracellular HIV RNA in culture supernatants: memory CD4 T cells
Text: We used HIV RNA in cell culture supernatants as a surrogate marker for virion release from treated cells. We assumed that extracellular virions would accumulate over the course of several days; therefore, the duration of culture was extended to 6 days to maximize assay sensitivity.
HIV-infected patients participating in the study were selected based on sustained plasma viral load suppression (<50 copies/ml for >12 months), CD4 counts (>350 cells/µL), and absence of co-infection with hepatitis B or C virus (Supplementary Table S1). Clinical laboratory results were reconfirmed 2 weeks before leukapheresis or blood draw. Leukapheresis was conducted for 3–4 hours, and samples were processed within 2 hours after collection. The leukapheresis product was diluted 1∶1 with PBS and layered over Ficoll for isolation of PBMCs. […] Resting CD4 T cells were isolated by first enriching total CD4 T cells (StemCell Technologies) and subsequently depleting HLA-DR-, CD25-, and CD69-positive cells via negative selection (Miltenyi Biotec, Auburn, CA).
To assess HIV activation by HDACi, up to 5 million CD4 T cells were plated in 24-well plates in 2.5 ml of media, supplemented with antiretrovirals (ARVs) (100 nM elvitegravir and 100–300 nM efavirenz) for the entire duration of culture incubation. HDACi were added at specified concentrations on day 0 and cells or culture supernatants were harvested for the analysis of HIV RNA at the indicated time points (6–48 hours or 6–7 days, respectively). For HDACi pulse treatment, cultures were washed twice using ARV-containing media at 4 or 24 hours after addition of HDACi and incubated with ARVs until harvest. To measure HIV RNA levels, 1 ml of culture supernatant was analyzed by a robotic COBAS AmpliPrep/TaqMan system (Roche Diagnostics, Indianapolis, IN), which extracts total nucleic acid and quantifies HIV RNA in copies per milliliter using the HIV-1 Test, v2.0 kit (Roche Diagnostics). For the measurement of cell-associated HIV RNA levels, cells were washed with PBS, counted, and lysed (Qiagen RLT buffer, 400 µl for every 2 million cells; Qiagen, Venlo, Netherlands). Lysates were filtered through a Qiashredder (Qiagen). Total RNA was prepared from the lysates (400 µl) using a robotic system (QIAsymphony, Qiagen) that incorporates a DNase I digestion step to eliminate cellular DNA. The resulting total RNA was eluted with 200 µl of buffer, diluted to 1 ml with nuclease-free water, and analyzed by COBAS using the HIV-1 Test v2.0 kit. Preparations of both cell-associated RNA and supernatant total nucleic acids were tested for potential contamination with HIV DNA and/or host DNA by performing the PCR amplification in the presence and absence of reverse transcriptase and by a detection of GAPDH-encoding host DNA sequence.
HIV RNA-induction experiments were conducted using 5 to 6 replicates for every experimental condition, including vehicle-treated controls. Fold induction in HIV RNA levels was calculated as a ratio of mean signals from compound-treated and vehicle (DMSO)-treated control samples from the same donor under identical conditions. […] For experiments using blood-derived resting CD4 T cells, culture supernatants from 3 replicate wells were combined and analyzed using the COBAS system.

Compound: C/C=C1\NC(=O)[C@H]2CSSCC/C=C/[C@H](CC(=O)N[C@H](C(C)C)C(=O)N2)OC(=O)[C@H](C(C)C)NC1=O [RMD, romidepsin]
- HIV RNA avg ([1]; Figure 2B, 6hr): 9642 copies/mil cells and 324 copies/mil cells and 14747 copies/mil cells and 6687 copies/mil cells and 2352 copies/mil cells
- HIV RNA avg ([1]; Figure 2B, 12hr): 6663 copies/mil cells and 352 copies/mil cells and 13013 copies/mil cells and 9057 copies/mil cells and 2763 copies/mil cells
- HIV RNA avg ([1]; Figure 2B, 24hr): 8902 copies/mil cells and 542 copies/mil cells and 17191 copies/mil cells and 14960 copies/mil cells and 4744 copies/mil cells
- HIV RNA avg ([1]; Figure 2B, 48hr): 3882 copies/mil cells and 831 copies/mil cells and 21497 copies/mil cells and 14409 copies/mil cells and 7107 copies/mil cells
- HIV RNA avg ([1]; Figure 4, 6 hours): 6481 copies/mil cells and 2385 copies/mil cells
- HIV RNA avg ([1]; Figure 4, 24 hours): 15888 copies/mil cells and 7188 copies/mil cells
- HIV RNA avg ([1]; Figure 4, 48 hours): 8834 copies/mil cells and 9481 copies/mil cells
- HIV RNA [copies/mil cells] avg ([1]; 3.5 nM RMD, 6 hours, donor 6): 4270 copies/mil cells
- HIV RNA [copies/mil cells] avg ([1]; 3.5 nM RMD, 6 hours, donor 7): 3321 copies/mil cells
- HIV RNA [copies/mil cells] avg ([1]; 3.5 nM RMD, 6 hours, donor 8): 816 copies/mil cells
- HIV RNA [copies/mil cells] avg ([1]; 3.5 nM RMD, 12 hours, donor 6): 3943 copies/mil cells
- HIV RNA [copies/mil cells] avg ([1]; 3.5 nM RMD, 12 hours, donor 7): 2314 copies/mil cells
- HIV RNA [copies/mil cells] avg ([1]; 3.5 nM RMD, 12 hours, donor 8): 526 copies/mil cells
- HIV RNA [copies/mil cells] avg ([1]; 3.5 nM RMD, 24 hours, donor 6): 4673 copies/mil cells
- HIV RNA [copies/mil cells] avg ([1]; 3.5 nM RMD, 24 hours, donor 7): 2633 copies/mil cells
- HIV RNA [copies/mil cells] avg ([1]; 3.5 nM RMD, 24 hours, donor 8): 586 copies/mil cells
- HIV RNA [copies/mil cells] avg ([1]; 3.5 nM RMD, 48 hours, donor 6): 3640 copies/mil cells
- HIV RNA [copies/mil cells] avg ([1]; 3.5 nM RMD, 48 hours, donor 7): 4009 copies/mil cells
- HIV RNA [copies/mil cells] avg ([1]; 3.5 nM RMD, 48 hours, donor 8): 769 copies/mil cells
- HIV RNA [copies/mil cells] avg ([1]; 15 nM RMD, 6 hours, donor 6): 9276 copies/mil cells
- HIV RNA [copies/mil cells] avg ([1]; 15 nM RMD, 6 hours, donor 7): 5400 copies/mil cells
- HIV RNA [copies/mil cells] avg ([1]; 15 nM RMD, 6 hours, donor 8): 2254 copies/mil cells
- HIV RNA [copies/mil cells] avg ([1]; 15 nM RMD, 12 hours, donor 6): 15172 copies/mil cells
- HIV RNA [copies/mil cells] avg ([1]; 15 nM RMD, 12 hours, donor 7): 4260 copies/mil cells
- HIV RNA [copies/mil cells] avg ([1]; 15 nM RMD, 12 hours, donor 8): 1826 copies/mil cells
- HIV RNA [copies/mil cells] avg ([1]; 15 nM RMD, 24 hours, donor 6): 24438 copies/mil cells
- HIV RNA [copies/mil cells] avg ([1]; 15 nM RMD, 24 hours, donor 7): 9787 copies/mil cells
- HIV RNA [copies/mil cells] avg ([1]; 15 nM RMD, 24 hours, donor 8): 4270 copies/mil cells
- HIV RNA [copies/mil cells] avg ([1]; 15 nM RMD, 48 hours, donor 6): 19207 copies/mil cells
- HIV RNA [copies/mil cells] avg ([1]; 15 nM RMD, 48 hours, donor 7): 13754 copies/mil cells
- HIV RNA [copies/mil cells] avg ([1]; 15 nM RMD, 48 hours, donor 8): 3470 copies/mil cells
- HIV RNA [copies/mil cells] avg ([1]; 45 nM RMD, 6 hours, donor 6): 14747 copies/mil cells
- HIV RNA [copies/mil cells] avg ([1]; 45 nM RMD, 6 hours, donor 7): 6687 copies/mil cells
- HIV RNA [copies/mil cells] avg ([1]; 45 nM RMD, 6 hours, donor 8): 2352 copies/mil cells
- HIV RNA [copies/mil cells] avg ([1]; 45 nM RMD, 12 hours, donor 6): 13013 copies/mil cells
- HIV RNA [copies/mil cells] avg ([1]; 45 nM RMD, 12 hours, donor 7): 9057 copies/mil cells
- HIV RNA [copies/mil cells] avg ([1]; 45 nM RMD, 12 hours, donor 8): 2763 copies/mil cells
- HIV RNA [copies/mil cells] avg ([1]; 45 nM RMD, 24 hours, donor 6): 17191 copies/mil cells
- HIV RNA [copies/mil cells] avg ([1]; 45 nM RMD, 24 hours, donor 7): 14960 copies/mil cells
- HIV RNA [copies/mil cells] avg ([1]; 45 nM RMD, 24 hours, donor 8): 4744 copies/mil cells
- HIV RNA [copies/mil cells] avg ([1]; 45 nM RMD, 48 hours, donor 6): 21497 copies/mil cells
- HIV RNA [copies/mil cells] avg ([1]; 45 nM RMD, 48 hours, donor 7): 14409 copies/mil cells
- HIV RNA [copies/mil cells] avg ([1]; 45 nM RMD, 48 hours, donor 8): 7107 copies/mil cells
- induction of HIV transcription ([1]; resting CD4 T cells, 3.5 nM RMD for 4 hours): minimal induction
- increase in intracellular HIV RNA levels versus vehicle ([1]; resting CD4 T cells, 40 nM RMD for 4 hours, peak between 24 and 48 hours): 6 fold
- persistence of intracellular HIV RNA induction ([1]; resting CD4 T cells, pulse RMD 4 hours, VOR 24 hours, PNB 24 hours, 6 to 48 hours): persisted throughout the 48-hour incubation period
- cell viability [2]: did not substantially affect cell viability
- sequences of HIV RNA collected in culture supernatants [3]: 4
- Free drug concentration, ex vivo cell culture exposure ([4]; RMD 40 nM, VOR 1,000 nM in culture): 22 nM
- fraction unbound ([4]; cell culture medium, equilibrium dialysis, read-out: Cell culture medium protein binding (free fraction)): 0.55
- CC50 [5]: 107 ± 126 nM
- CC50 at 48 h [6]: 100 nM
- persistence of inhibition of cell-associated HDAC activity [7]: persisted throughout the 48-hour incubation period
- HIV RNA avg ([8]; Figure 3A, 5 nM RMD): 1476 copies/mil cells and 10908 copies/mil cells and 138 copies/mil cells and 222 copies/mil cells and 322 copies/mil cells and 41.9 copies/mil cells and 73 copies/mil cells and 313.5 copies/mil cells
- HIV RNA avg ([8]; Figure 3A, 20 nM RMD): 68 copies/mil cells and 712 copies/mil cells and 1346 copies/mil cells and 3086 copies/mil cells and 1361 copies/mil cells and 157 copies/mil cells and 732 copies/mil cells and 4776 copies/mil cells
- HIV RNA avg ([8]; Figure 3B, 5 nM RMD): 1032 copies/mil cells and 1674 copies/mil cells and 1740 copies/mil cells and 1435 copies/mil cells and 1299 copies/mil cells and 1832 copies/mil cells and 6659 copies/mil cells and 1420 copies/mil cells and 8934 copies/mil cells and 205 copies/mil cells and 148 copies/mil cells and 1219 copies/mil cells
- High-responding patient; HIV RNA [copies/mL] ([8]; Figure 7, 0.093nM RMD, donor 29, experiments 1-3): 34 copies/mL and 36 copies/mL and 64 copies/mL
- Low-responding patient; HIV RNA [copies/mL] ([8]; Figure 7, 0.093nM RMD, donor 33, experiments 1-3): 20 copies/mL and 28 copies/mL
- extracellular HIV RNA in culture supernatants ([8]; 5 nM RMD continuous 6 days): detection of extracellular HIV RNA in memory CD4 T-cell cultures from the majority of tested donors
- extracellular HIV RNA in culture supernatants ([8]; 5 and 20 nM RMD for 4 hours, day 6): increased extracellular HIV RNA
